Experimental data: publication PMC6010047, “Design, synthesis and biological evaluation of novel hydroxy-phenyl-1H-benzimidazoles as radical scavengers and UV-protective agents” (Journal of Enzyme Inhibition and Medicinal Chemistry, 2017)
Where two headings read alike, the source gives them in different places.

Key:
NCTC-2544 cells = test: Phototoxicity / cellular photoprotection, UVA or UVB irradiation, MTT test; conditions: for % Cell survival UVA 20 J/cm^2 / % Cell survival UVB 0.5 J/cm^2 / % Cell survival UVB 1 J/cm^2: 50 μM, vs nonirradiated cells (100%), 48 h after irradiation; for phototoxic effect (cell survival vs irradiated control): NCTC-2544, UVA/UVB irradiation; for viability at 20 µM / viability at 50 µM: Homo sapiens, NCTC-2544, light or radiation study, 48 h; for cell survival in relation to the irradiated control: after UVB irradiation 1 J/cm^2
Method: An immortalized, nontumorigenic cell line of human keratinocytes (NCTC-2544) was grown in a DMEM medium (Sigma-Aldrich Milan, Italy), supplemented with 115 units/mL of penicillin G, 115 μg/mL streptomycin, and 10% fetal calf serum (Invitrogen, Milan, Italy). Individual wells of a 96-well tissue culture microtiter plates (Falcon, Becton–Dickinson) were inoculated with 100 μL of complete medium containing 5 × 10^3 NCTC-2544. The plates were incubated at 37 °C in a humidified (5% CO2) incubator for 18 h prior to the experiments.
Two HPW 125 Philips lamps, mainly emitting at 365 nm, were used for UVA irradiation experiments. The spectral irradiance of the source was 4.0 mWcm^−^2 as measured at the sample level by a Cole-Parmer Instrument Company radiometer (Niles, IL) equipped with a 365-CX sensor. One or two PL-S 9 W/12 Philips lamps (280–370 nm; peak at 315 nm) were used for UVB irradiation experiments. To restrict the incident radiation to the range 305–370 nm, a glass filter (Schott SWG-305) was used. Total energy was detected by the same equipped with a sensor (model CX-312).
After medium removal, 100 μL of the drug solution, dissolved in DMSO and diluted with Hank’s Balanced Salt Solution (HBSS pH =7.2), was added to each well, incubated at 37 °C for 30 min, and then irradiated (20 J/cm^2 for UVA and 0.5 and 1 J/cm^2 for UVB). After irradiation, the solution was replaced with the medium and the plates were further incubated for 48 h. Cell viability was assayed by the MTT [(3–(4,5-dimethylthiazol-2-yl)-2,5 diphenyl tetrazolium bromide)] test as previously described by Mosmann[27].
Molecules were verified for their photocytotoxicity in the same cell line; the cells were treated with 50 μM solutions of compound and after 30 min were irradiated with 20 J/cm^2 UVA or with UVB at two energy amounts: 0.5 J/cm^2 and 1 J/cm^2 UVB. […] After irradiation, the solution was replaced with growth medium and the cells were further incubated for 48 h, and then, cell viability was assessed by MTT assay. […] The phototoxicity of tested molecules was compared with the ratio of cell survival of irradiated keratinocytes without substance (IC = irradiated control).

[1] = PCL antioxidant activity of finished formulations; format: biochemical; conditions: 3% (w/w) compound in O/W formulation
Method: PCL assay, based on the methodology of Popov and Lewin[23], was used to measure the antioxidant activity of synthesized compounds with a Photochem® apparatus (Analytik Jena, Leipzig, Germany) against superoxide anion radicals generated from luminol, a photosensitizer, when exposed to UV light (Double Bore® phosphor lamp, output 351 nm, 3 mWatt/cm^2). The antioxidant activity was measured using ACL (Antioxidant Capacity of Liposoluble substance) kit provided by the manufacturer designed to measure the antioxidant activity of lipophilic compounds[24]. […] The areas under the curves were calculated using the PCLsoft control and analysis software. […] This inhibition was used as a parameter for quantification and related to the decrease in the integral of PCL intensities caused by varying concentrations of Trolox. The observed inhibition of the signal was plotted against the concentration of Trolox added to the assay medium. The concentration of the added tested compounds was such that the generated luminescence during the 180-s sampling interval fell within the limits of the standard curve. The antioxidant assay was carried out in triplicate for each sample, and 20 μL of the diluted compound in HPLC-grade methanol (ACL) was sufficient to correspond to the standard curve.
It was decided to use a standard formulation oil in water (O/W).
In particular, molecules with phenolic hydroxyl in the ortho position on the phenyl ring (4, 5, 9, 10 and 13) had better and higher UVA/UVB ratio and critical wavelength, although they have the SPF value less than lead compound. Formulation containing products 2 and 14, which have a phenolic hydroxyl at the para position on the phenyl ring, have shown good values in terms of SPF, greater UVA protection factor, critical wavelength and also higher UVA/UVB ratio than PBSA, but yet lower than the molecules containing hydroxyl on the phenyl ring in ortho. […] Compound 8 has lower SPF than 3, but higher than PBSA; in comparison with 3, molecules 8 and 12 presented higher UVA/UVB ratio and critical wavelength. Regarding compounds with three hydroxyls on phenyl ring, they have good UVA filtering parameters, their critical wavelengths are the highest and SPF is higher than PBSA for molecule 6, while SPF of 15 is slightly lower and decreases further in molecule 11. Thus, it can be observed that parameters are mainly influenced by the number and position of the hydroxyl groups on the phenyl ring rather than the substituent in the 5-position of benzimidazole. Concomitantly, all formulations were analyzed to assess whether the antioxidant power was maintained. […] In Table 4, the antioxidant activity, measured by PCL method, of finished formulations is reported; as it can be seen results were in agreement with that obtained testing the pure compounds. […] Formulations containing compounds 3, 8 and 12 presented highest antioxidant capabilities; these are followed, but with important decrease in antioxidant capacity, by formulations with compounds 6, […] and 15 that have three hydroxyl moieties on phenyl ring.

[2] = UV spectra: λmax and molar extinction coefficient; format: physicochemical; conditions: for λ max: aqueous solution at pH 7; for ɛ (molar extinction coefficient): aqueous solution at pH 7, at λ max, linear regression Lambert–Beer
Method: Sun protection factor (SPF) is related to the UV absorption of the substances, so before including the molecules in cosmetic formulations we evaluated the wavelength of maximum absorption (λmax) and the molar extinction coefficient (ɛ) of each molecule in aqueous solution at pH 7. The UV spectra were recorded between 270 and 420 nm (20 nm higher and lower then UVA and UVB range) to verify the spectrum profile of the molecules within UVA and UVB region. UV spectrum of PBSA is an UVB filter and presents a λmax of 302 nm; after this peak, the absorbance fades going to higher wavelength until almost zero around 325 nm, and then, it provides no absorption in the UVA region. Molecules spectra overlapped for category according to the substituent in position 5 of the benzimidazole ring are shown in Figures 1, 2 and 3; PBSA spectrum is presented in all figures for comparison.
From the spectra appears that the lambda maxima (Table 2) of the new molecules shifted toward higher wavelength and in general the range of absorption curve was wider than PBSA. Within a group of molecules, the batochromic shift was more marked for the molecules that have a hydroxyl moiety in position 2 of the phenyl ring (4, 5, 6, 9, 10, 11, 13 and […]); the effect of ortho substituted is known to produce this shift toward higher wavelength. Increasing the number of auxochrome groups on phenyl ring an increment in the absorption range occurred, compounds with three hydroxyl on the phenyl ring (6, 11, 15) had the broadest spectrum and their lambda maxima shifted at the highest wavelength compared to the other compounds. The absorption spectrum of molecules with the same number and position of hydroxyl seemed only slightly influenced by the substituent in position 5 of the benzimidazole ring. After having established the lambda maxima for every compound, solutions at different concentrations were prepared to calculate the molar extinction coefficient by means of linear regression and applying Lambert–Beer equation (Table 2).

[3] = read-out: % Cell survival UVA 20 J/cm^2
[4] = read-out: % Cell survival UVB 0.5 J/cm^2
[5] = read-out: % Cell survival UVB 1 J/cm^2

| Compound | λ max [2] | ɛ (molar extinction coefficient) [2] | % Cell survival UVA 20 J/cm^2 (NCTC-2544 cells) | % Cell survival UVB 0.5 J/cm^2 (NCTC-2544 cells) | % Cell survival UVB 1 J/cm^2 (NCTC-2544 cells) | PCL of finished formulation [1] | phototoxic effect (cell survival vs irradiated control) (NCTC-2544 cells) | viability at 20 µM (NCTC-2544 cells; [3]) | viability at 20 µM (NCTC-2544 cells; [4]) | viability at 20 µM (NCTC-2544 cells; [5]) | viability at 50 µM (NCTC-2544 cells; [3]) | viability at 50 µM (NCTC-2544 cells; [4]) | viability at 50 µM (NCTC-2544 cells; [5]) | cell survival in relation to the irradiated control (NCTC-2544 cells) |
| --- | --- | --- | --- | --- | --- | --- | --- | --- | --- | --- | --- | --- | --- | --- |
| 2-(2-Hydroxy-phenyl)-1H-benzimidazole [Compound 10] | 315 nm | 17 000 | 4.8 ± 0.6% | 19.8 ± 2.4% | 3.5 ± 0.3% | 0.5 ± 0.02 μmol Trolox/g formulation | phototoxic effect | – | – | – | – | – | – | – |
| O=S(=O)(O)c1ccc2[nH]c(-c3ccc(O)cc3)nc2c1 [Compound 2, 2-(4-Hydroxy-phenyl)-1H-benzimidazole-5-sulfonic acid] | 308 nm | 25 000 | – | – | – | 0.33 ± 0.03 μmol Trolox/g formulation | – | 77.3 ± 2.8% | 78 ± 3.5% | 46.7 ± 3.4% | – | – | – | – |
| O=S(=O)(O)c1ccc2[nH]c(-c3ccccc3O)nc2c1 [Compound 4, 2-(2-Hydroxy-phenyl)-1H-benzimidazole-5-sulfonic acid] | 315 nm | 21 000 | – | – | – | 0.06 ± 0.02 μmol Trolox/g formulation | – | – | – | – | 76.9 ± 2% | 74.3 ± 3.2% | 37.7 ± 1.7% | – |
| O=S(=O)(O)c1ccc2[nH]c(-c3ccc(O)cc3O)nc2c1 [Compound 5, 2-(2,4-Dihydroxy-phenyl)-1H-benzimidazole-5-sulfonic acid] | 318 nm | 23 000 | – | – | – | 0.95 ± 0.02 μmol Trolox/g formulation | – | – | – | – | 79 ± 6% | 70.8 ± 3.9% | 38.6 ± 3.7% | – |
| O=S(=O)(O)c1ccc2[nH]c(-c3ccc(O)c(O)c3O)nc2c1 [Compound 6, 2-(2,3,4-Trihydroxy-phenyl)-1H-benzimidazole-5-sulfonic acid] | 328 nm | 22200 L/mol/cm | – | – | – | 101.98 ± 1.08 μmol Trolox/g formulation | phototoxic effect | 18.4 ± 2.3% | 59.3 ± 3.4% | 29.7 ± 2.1% | – | – | – | – |

Further lines, with some results ahead:

| λ max [2] | ɛ (molar extinction coefficient) [2] | Compound | % Cell survival UVA 20 J/cm^2 (NCTC-2544 cells) | % Cell survival UVB 0.5 J/cm^2 (NCTC-2544 cells) | % Cell survival UVB 1 J/cm^2 (NCTC-2544 cells) | PCL of finished formulation [1] | phototoxic effect (cell survival vs irradiated control) (NCTC-2544 cells) | viability at 20 µM (NCTC-2544 cells; [3]) | viability at 20 µM (NCTC-2544 cells; [4]) | viability at 20 µM (NCTC-2544 cells; [5]) | viability at 50 µM (NCTC-2544 cells; [3]) | viability at 50 µM (NCTC-2544 cells; [4]) | viability at 50 µM (NCTC-2544 cells; [5]) | cell survival in relation to the irradiated control (NCTC-2544 cells) |
| --- | --- | --- | --- | --- | --- | --- | --- | --- | --- | --- | --- | --- | --- | --- |
| 315 nm | 14 000 | 2-(2,4-Dihydroxy-phenyl)-1H-benzimidazole [Compound 9] | 3.7 ± 0.5% | 1.1 ± 0.3% | 0.5 ± 0.1% | 8.66 ± 0.04 μmol Trolox/g formulation | – | – | – | – | – | – | – | – |
| 311 nm | 16 000 | Oc1ccc(-c2nc3ccccc3[nH]2)cc1O [Compound 8, 2-(3,4-Dihydroxy-phenyl)-1H-benzimidazole] | – | – | – | 2972.107 ± 145.63 μmol Trolox/g formulation | – | – | – | – | 62.9 ± 4.3% | 72.8 ± 1% | 43.9 ± 3.4% | – |
| 325 nm | 12 000 | Oc1ccc(-c2nc3ccccc3[nH]2)c(O)c1O [Compound 11, 2-(2,3,4-Trihydroxy-phenyl)-1H-benzimidazole] | – | – | – | 153.35 ± 8.14 μmol Trolox/g formulation | phototoxic effect | – | – | – | 1.2 ± 0.2% | 45.6 ± 2.6% | 27 ± 2.4% | – |
| 321 nm | 20 000 | O=C(O)c1ccc2[nH]c(-c3ccc(O)cc3O)nc2c1 [Compound 13, 2-(2,4-Dihydroxy-phenyl)-1H-benzimidazole-5-carboxylic acid] | – | – | – | 4.97 ± 0.17 μmol Trolox/g formulation | – | – | – | – | 80.7 ± 1.3% | 69 ± 0.2% | 57.5 ± 2.4% | doubled |
| 312 nm | 24 000 | O=C(O)c1ccc2[nH]c(-c3ccc(O)cc3)nc2c1 [Compound 14, 2-(4-Hydroxy-phenyl)-1H-benzimidazole-5-carboxylic acid] | – | – | – | 0.16 ± 0.02 μmol Trolox/g formulation | – | – | – | – | 76.7 ± 3.4% | 74.2 ± 3.4% | 58.4 ± 2.5% | doubled |
